Experimental data: publication PMC4428838, “Optimization of Invasion-Specific Effects of Betulin Derivatives on Prostate Cancer Cells through Lead Development” (PLoS ONE, 2015)

Assays:
Type in all cases: cell-based
[1] = system: PC-3 cells; assay: Primary 3D screen in Matrigel ECM, morphometric image analysis (AMIDA) of invasion, growth and cell death; conditions: PC-3 in 3D Matrigel; for anti-invasive effects in 3D culture (in words): 0.03-1 μM
Experimental: Three standard of care compounds widely used against PrCa were added as controls; namely, the androgen receptor antagonist enzalutamide (MDV3100), the C17α-hydroxylase/C17,20-lyase inhibitor abiraterone (Zytiga), and the classic mitotic inhibitor paclitaxel. Treatments started at day 4, when well-differentiated round acini were established.
The live 3D cell cultures were then stained with reactive dyes Calcein AM to detect living, and ethidium homodimer to detect dead cells. Images (Fig 4A) were acquired with confocal microscope and image data were analyzed with the AMIDA software. The principles of morphometric image analysis are briefly outlined in S2 Fig.
Fig 4 Primary 3D screen. PC-3 cells were cultured in 3D Matrigel ECM for 4 days and treated for 6 days with 25 betulin derivatives (from 2D high throughput screens), DMSO/vehicle control, and three reference compounds. A) Representative maximum intensity projections of confocal microscope stack images for selected compound treatments at 300 nM concentration (5× objective, scale 100 μm). B) Three graphs showing the relative impact on three morphometric parameters for 7 betulin derivatives, DMSO control, and one control compound (paclitaxel). […] C) Hierarchical clustering was done using three morphological parameters derived from PC3 organoids: spheroid size (area), complexity and the number of dead cells. D) Wound healing curves of the two betulin derivatives 4 and 20, highlighting the 50% cut-off level (orange dashed line).
Next, statistical analyses were performed to interpret the complex image data (Fig 4B and 4C). For simplicity, we focused on only three, basic morphologic parameters from the multiparametric AMIDA readout (Fig 4B): 1) Area (indicating growth of organoids), 2) structural Complexity (as a measure of the intensity of invasion), and 3) Relative Area of dead cells within organoids (red signal as a measure of cytoxicity or apoptosis). Area (Size of organoids; Fig 4B, upper panel) was measured as the number of pixels within a segmented structure. […] Shape Complexity (Fig 4B, middle panel) was obtained using the structure size (area) and perimeter (number of border pixels). The more regular the shape of an organoid, the closer it is to a perfect circle, thus minimizing the perimeter relative to object size. […] Deviations from this average (residuals) were interpreted as a measure for the shape complexity of organoids. As a logical lower limit for this measure (represented by a perfect circle), we adjusted the intercept (height level) of the regression line to render all returned residuals as positive numbers.
All 3D cultures were done in growth factor-free Matrigel Basement-membrane Matrix (Corning Inc., New York, NY, USA) using 96-well Angiogenesis μ-plates (ibidi GmbH, Munich, Germany) as described before.[38] “Sandwich” assays in short: bottom wells of cooled Angiogenesis plates were filled with 10 μL 4 mg/mL Matrigel, centrifuged for 20 min 200 g and incubated at 37°C temperature for approximately 30–60 min or until the ECM had polymerized. 1,000–1,500 cells were mixed in 2 mg/mL ECM-medium, and 20 μL of cell suspension was added in each well. The plates were centrifuged for 10 min at 100 g, or until the cells had settled on top of the lower ECM. Finally, the outer wells and side reservoirs were filled with water for humidification, and the culture plates placed into the incubator for 3–4 h or overnight. The following day, 60 μL of cell culture medium were added; refreshed every third day by carefully aspirating the medium.

[2] = system: PC3 cells; assay: Cell morphology and actin cytoskeleton in 2D monolayer culture; conditions: PC3, 2D, 72h
Experimental: As a control, we also tested morphologies treated with the same panel of anti-invasive compounds 4, 5, 6, 16 and 20 as well as betulin (1) on PC3 cells grown in 2D monolayer cultures (S9 Fig).
Supplementary file pone.0126111.s009.tif: S9 Fig Morphologies of PC-3, LNCaP and Ep156T cells in 2D monolayer culture, exposed 72h to selected betulin derivatives. Actin cytoskeleton (filamentous or F- actin) is stained green (LifeAct), nuclei with a red dye (confocal microscope images, 40× objective, scale bar shown for each panel on the right lower corner). (TIF) Click here for additional data file.

[3] = system: LAPC-4; assay: Secondary 3D screen (spheroid size, complexity, cell death); conditions: yellow and red clusters
Excerpt: Next, the 25 selected betulin derivatives depicted in Figs 1–3 including control compounds were again thoroughly tested across the same panel of prostate-derived cell lines already used in the preliminary, 2D high-throughput screen. The resulting dendrograms were either generated separately for each cell line (S4 Fig), combined into a single dendrogram (Fig 5A), or shown as reduced organoid sizes (area; Fig 5B).
Fig 5 Secondary 3D screens. Experimental betulin derivatives and control compounds were tested across a panel of prostate cancer lines (LNCaP, LAPC-4) and non-transformed, prostate epithelial cells (EP156T) in 3D culture. A) The dendrogram is based on three main morphological parameters and combines all data from primary and secondary 3D screens. […] B) Boxplots showing the impact of selected compounds on spheroid size (Area). Data scaling: as described in Fig 4 C) Effects of all betulin derivatives and control compounds on cell death (number of dead cells).
All 3D cultures were done in growth factor-free Matrigel Basement-membrane Matrix (Corning Inc., New York, NY, USA) using 96-well Angiogenesis μ-plates (ibidi GmbH, Munich, Germany) as described before.[38] “Sandwich” assays in short: bottom wells of cooled Angiogenesis plates were filled with 10 μL 4 mg/mL Matrigel, centrifuged for 20 min 200 g and incubated at 37°C temperature for approximately 30–60 min or until the ECM had polymerized. 1,000–1,500 cells were mixed in 2 mg/mL ECM-medium, and 20 μL of cell suspension was added in each well. The plates were centrifuged for 10 min at 100 g, or until the cells had settled on top of the lower ECM. Finally, the outer wells and side reservoirs were filled with water for humidification, and the culture plates placed into the incubator for 3–4 h or overnight. The following day, 60 μL of cell culture medium were added; refreshed every third day by carefully aspirating the medium. This “sandwich” setting allows almost unifocal alignment of cells and 3D structures in a single optical plane, thus reducing the time required for confocal stack imaging.
All control compounds were purchased from Selleck (Munich, Germany), except for staurosporine (Sigma-Aldrich, St. Louis, MO, USA) and Y-27632 (Tocris, Bristol, UK) and dissolved in dimethyl sulfoxide (DMSO) as a vehicle at 10 mM. In the primary and secondary 3D screens, experimental and control compound exposures were performed in triplicates. Four concentrations for each compound were applied (0.03, 0.1, 0.3 and 1 μM). Compound treatments were initiated four days after cell embedding, and continued for six days after which spheroids were stained and imaged.
Supplementary file pone.0126111.s004.eps: S4 Fig Secondary screens. Dendrograms for A) LNCaP, B) LAPC-4, and C) Ep156T betulin screens in 3D culture have been constructed using three main read-outs: spheroid size, spheroid complexity, and cell death. […] (EPS) Click here for additional data file.

[4] = system: PC-3; assay: Wound healing assay in 2D monolayer culture (IncuCyte); conditions: example for inactive derivatives
Experimental: Cells were cultured on ImageLock plates (Essen Bioscience, Ann Arbor, MI, USA) until fully confluent and scratched with a WoundMaker instrument (Essen Bioscience). All detached cells were removed by aspiration and medium supplemented with experimental compounds was added. Wound closure was monitored and quantified with the IncuCyte live-cell imager (Essen Bioscience).
A) Graph showing the transition of PC-3 spheroids from symmetrical acini to irregular invasive structures over 6 days, as measured by general symmetry (roundness %). […] B) Conventional wound healing assay performed in monolayer culture over a period of 64 hours. Wound closure is measured as relative wound density i.e. percentage of original wound area reclaimed by migrating cells. […] (EPS) Click here for additional data file.

Row | Compound | anti-invasive effects in 3D culture (in words) ([1]; 6 days treatment) | other results
1 | C=C(C)[C@@H]1CC[C@]2(C(=O)O)CC[C@]3(C)[C@H](CC[C@@H]4[C@@]5(C)CC[C@H](O)C(C)(C)[C@@H]5CC[C@]43C)[C@@H]12 [Compound 1, betulinic acid] | did not show significant anti-invasive effects | morphology and actin cytoskeleton of cells in 2D monolayer [2]: No morphologies and visible effects on the actin cytoskeleton
2 | C=C(C)[C@@H]1CC[C@]2(C=O)CC[C@]3(C)C(CCC4[C@@]5(C)Cc6cnoc6C(C)(C)C5CC[C@]43C)C12 (stereo partly drawn) [Compound 7] | negligible effects on the invasive phenotype | 
3 | C=C(C)[C@@H]1CC[C@]2(COC(C)=O)CC[C@]3(C)C(CCC4[C@@]5(C)Cc6cnoc6C(C)(C)C5CC[C@]43C)C12 (stereo partly drawn) [Compound 8] | negligible effects on the invasive phenotype | 
4 | C=C(C)[C@@H]1CC[C@]2(C(N)=O)CC[C@]3(C)C(CCC4[C@@]5(C)Cc6cnoc6C(C)(C)C5CC[C@]43C)C12 (stereo partly drawn) [Compound 9] | negligible effects on the invasive phenotype | 
5 | C=C(C)[C@@H]1CC[C@]2(CO)CC[C@]3(C)C(CCC4[C@@]5(C)Cc6cnoc6C(C)(C)C5CC[C@]43C)C12 (stereo partly drawn) [Compound 10] | negligible effects on the invasive phenotype | 
6 | C=C(C)[C@@H]1CC[C@]2(C(=O)N3CCCC3)CC[C@]3(C)C(CCC4[C@@]5(C)CCC(=O)C(C)(C)C5CC[C@]43C)C12 (stereo partly drawn) [Compound 11] | None of these compounds showed significant anti-invasive effects | 
7 | C=C(C)[C@@H]1CC[C@]2(C(=O)NCCC)CC[C@]3(C)C(CCC4[C@@]5(C)CCC(=O)C(C)(C)C5CC[C@]43C)C12 (stereo partly drawn) [Compound 12] | None of these compounds showed significant anti-invasive effects | 
8 | C=C(C)[C@@H]1CC[C@]2(C(=O)N3CCCCC3)CC[C@]3(C)C(CCC4[C@@]5(C)CCC(=O)C(C)(C)C5CC[C@]43C)C12 (stereo partly drawn) [Compound 13] | None of these compounds showed significant anti-invasive effects | 
9 | C=C(C)[C@@H]1CC[C@]2(C(=O)N3CCOCC3)CC[C@]3(C)C(CCC4[C@@]5(C)CCC(=O)C(C)(C)C5CC[C@]43C)C12 (stereo partly drawn) [Compound 14] | None of these compounds showed significant anti-invasive effects | 
10 | C=C(C)[C@@H]1CC[C@]2(C(N)=O)CC[C@]3(C)C(CCC4[C@@]5(C)Cc6nccnc6C(C)(C)C5CC[C@]43C)C12 (stereo partly drawn) [Compound 16] | same high level of anti-invasive effects as compound 15 | efficacy in 3D LAPC-4 culture (dendrogram clusters) [3]: most active; concentration at which anti-invasive effects are seen in 3D ([1]; 6 days treatment): 100 nM; morphology and actin cytoskeleton of cells in 2D monolayer [2]: No morphologies and visible effects on the actin cytoskeleton
11 | C=C(C)[C@@H]1CC[C@]2(C(=O)N3CCCCC3)CC[C@]3(C)C(CCC4[C@@]5(C)Cc6nccnc6C(C)(C)C5CC[C@]43C)C12 (stereo partly drawn) [Compound 17] | inactive | 
12 | C=C(C)[C@@H]1CC[C@]2(C#N)CC[C@]3(C)C(CCC4[C@@]5(C)Cc6nccnc6C(C)(C)C5CC[C@]43C)C12 (stereo partly drawn) [Compound 18, Lupa-2,20(29)-dieno[2,3-b]pyrazino-28-nitrile] | inactive | 
13 | C=C(C)[C@@H]1CC[C@]2(C(=O)N3CCCCC3)CC[C@]3(C)C(CCC4[C@@]5(C)CC[C@H](O)C(C)(C)C5CC[C@]43C)C12 (stereo partly drawn) [Compound 21] |  | activity in validation (wound healing) in words [4]: inactive
14 | C[C@@H](N)[C@H]1CC[C@H](C(=O)Nc2ccncc2)CC1 [Compound Y-27632, reference compound] |  | morphology and actin cytoskeleton of cells in 2D monolayer [2]: elongation
15 | Oc1ccc2ccccc2c1SSc1c(O)ccc2ccccc12 [IPA3, reference compound] |  | morphology and actin cytoskeleton of cells in 2D monolayer [2]: clear rounding
16 | C[C@]12CC[C@H](O)CC1=CC[C@@H]1[C@@H]2CC[C@]2(C)C(c3cccnc3)=CC[C@@H]12 [abiraterone, reference compound] |  | efficacy in 3D LAPC-4 culture (dendrogram clusters) [3]: efficacy of all positive controls; effect on morphometric measures (area, complexity, dead cells) ([1]; paclitaxel at 30 and 100 nM): no noticeable effect
